{
  "source": "patent US10301259B2",
  "about": "“Beta-cryptoxanthin from plant source and a process for its preparation” (OMNIACTIVE HEALTH TECHNOLOGIES LIMITED, priority 2013, dated 2019)",
  "key": {"[1]": {"settings": "under similar conditions; Burri et al. (2011); cited from earlier work"}, "OVX rat model": {"tested_on": "OVX rat model", "assay": "Anti-resorptive / anti-osteoporotic activity in OVX rat model (overall conclusions)", "type": "in vivo, Wistar rats"}},
  "data": [
    {"molecule": "CC1=C(/C=C/C(C)=C/C=C/C(C)=C/C=C/C=C(C)/C=C/C=C(C)/C=C/C2=C(C)CC(O)CC2(C)C)C(C)(C)CCC1", "note": "(stereo not drawn) [beta-cryptoxanthin, beta,beta-caroten-3-ol]", "values": [
      {"measurement": "Bioavailability relative to beta-carotene", "setting": "[1]", "result": "~7", "unit": "fold"},
      {"measurement": "Anti-osteoporotic activity", "setting": "OVX rat model", "result": "significant anti-osteoporotic activity"}
    ]}
  ]
}
